Measurements taken from patent US20230310540A1, “PEPTIDE COMPOSITIONS AND METHODS OF USE THEREOF” (priority 2020, published 2023).
Values after ≈ are worked out from the molar mass of the structure shown. Like-named read-outs stand apart in the source and are kept apart here. Square brackets hold non-standard residues; d marks the D form. Peptide text beside a SMILES is read from it.

Legend:
[1] = tested on: Acinetobacter baumannii (PDR); assay: Broth dilution MIC against pan drug-resistant A. baumannii isolate; type: cell-based; conditions: isolate AB (PDR)
[2] = tested on: Pseudomonas aeruginosa (CF mucoid and non-mucoid); assay: Broth dilution MIC against P. aeruginosa isolates from cystic fibrosis patients; type: cell-based
[3] = tested on: Klebsiella pneumoniae clinical isolates
[4] = tested on: Methicillin-resistant Staphylococcus aureus (SAP400); assay: Broth dilution MIC against MRSA isolate; type: cell-based
human RBCs = assay: Hemolysis of human RBCs; type: cell-based
Protocol: (§1) Peptide variants of D-CONGA (SEQ ID NO: 1) were tested for activity against E. coli, K. pneumoniae, and S. aureus. Minimum Inhibitory Concentrations (MIC) were measured in 96-well plates by broth dilution. Peptides were serially diluted in buffer or in buffer containing 1×10^9 human RBC/ml. Following 1 hr. incubation, bacteria in growth media were added and the plates were incubated overnight at 37° C. Sterilized, wells were identified to determine MIC. Hemolysis was measured by incubating 1×10^8 human RBCs with serially diluted peptide for 30 minutes followed by centrifugation of the cells and measurements of the released hemoglobin in the supernatant by absorbance at 410 nm. The value for 100% hemolysis was established by treatment with the detergent Triton-X100. Toxicity was measured by incubating serially diluted peptide with WI38 human fibroblast cells in the presence of SYTOX Green, a DNA binding dye that reports on cell death by membrane permeabilization. The peptide concentration that gives 50% cytotoxicity by relative SYTOX Green fluorescence, is denoted EC50.
Peptide was serially diluted in PBS starting at a concentration of 100 μM. The final volume of peptide in each well was 50 μL. To each well, 50 μL of RBCs in PBS at 2×10^8 cells/mL was added. As a positive lysis control, 1% triton was used. The mixtures were incubated at 37° C. for 1 hour, after which they were centrifuged at 1000 g for 5 minutes. After centrifugation, 10 μL of supernatant was transferred to 90 μL of DI H2O in a fresh 96-well plate. The absorbance of released hemoglobin at 410 nm was recorded and the fractional hemolysis was calculated based on the 100% and 0% lysis controls.
(§2) MIC values were reported in μM peptide against gram-negative E. coli (EC), P. aeruginosa (PA), and gram-positive S. aureus (SA). The two columns under each organism are for assays performed in the absence (−) and presence (+) of 1×10^9 human RBC/ml. “>30” means that sterilization was not observed at 30 μM, the highest concentration tested. The column marked “hemolysis” is the fractional hemolysis of 1×10^8 human RBC/ml at 100 μM peptide determined from measurements of serially diluted peptide, starting from 100 μM. The column marked “EC 50” contains the concentration of peptide that kills 50% of WI-38 human fibroblast cells assayed by entry of SYTOX™ Green DNA binding dye.

E. coli = type: cell-based
Protocol: as §1
(§3) Antimicrobial peptides and conventional antibiotics were prepared at 5-times the final concentration needed in 0.025% acetic acid. The antibiotics were serially diluted by a factor of 2:3 horizontally across 96-well plates from Corning, 25 μL per well. One column was reserved for controls. For the assays performed in the presence of RBC, type O+ human RBCs at 0 or 2.5×10^9 cells/mL were added in 50 μL aliquots to all wells. Following a 30-minute incubation, 50 μL of TSB, inoculated with 5×10^5 CFU/mL, was added to all wells, and plates were incubated overnight at 37° C. Following overnight incubation at 37° C., the OD600 was measured (values of less than 0.1 were considered sterilized). To assess bacterial growth in the assays with RBC, the OD600 was measured after a second day inoculation with 10 μL of solution from the original plate added to 100 μL of sterile TSB followed by overnight incubation.
as §2

S. aureus = type: cell-based
Protocol: as §1, §3, §2

K. pneumoniae = type: cell-based; conditions: with 10^9 human RBC/ml; Table 2
Protocol: as §1, §3, §2

[5] = tested on: WI-38 human fibroblast cells; assay: SYTOX Green cytotoxicity assay; type: cell-based
Protocol: Peptide variants of D-CONGA (SEQ ID NO: 1) were tested for activity against E. coli, K. pneumoniae, and S. aureus. Minimum Inhibitory Concentrations (MIC) were measured in 96-well plates by broth dilution. […] Following 1 hr. incubation, bacteria in growth media were added and the plates were incubated overnight at 37° C. Sterilized, wells were identified to determine MIC. […] The value for 100% hemolysis was established by treatment with the detergent Triton-X100. Toxicity was measured by incubating serially diluted peptide with WI38 human fibroblast cells in the presence of SYTOX Green, a DNA binding dye that reports on cell death by membrane permeabilization. The peptide concentration that gives 50% cytotoxicity by relative SYTOX Green fluorescence, is denoted EC50. WI-38 cells were grown to confluency in T-75 flasks in complete DMEM (with 15% FBS, plus antibiotics and non-essential amino acids). The day prior to cytotoxicity experiments, cells were trypsinized, removed from the flask, and pelleted. Cells were resuspended in complete DMEM and the cell count was obtained using a cell counter. The cells were then seeded at a density of 10,000 cells/well in a 96-well tissue-culture plate. […] To perform the cytotoxicity assay, media from wells of overnight cell culture plate was removed, washed once with PBS and treated with 50 μl of the peptide and SYTOX™ Green mixture. The plate was read for fluorescence, every 5 minutes, for an hour at the excitation wavelength of 385 nm and emission wavelength of 530 nm. MelP5, a potent MPP, that causes 100% SYTOX™ Green entry into the cells was used as a positive control to normalize the cytotoxicity of peptides tested. MIC values were reported in μM peptide against gram-negative E. coli (EC), P. aeruginosa (PA), and gram-positive S. aureus (SA). […] The column marked “EC 50” contains the concentration of peptide that kills 50% of WI-38 human fibroblast cells assayed by entry of SYTOX™ Green DNA binding dye.

[6] = isolate KP (Morici), ATCC #33495
[7] = presence of 1×10^9 human RBC/ml, Table 3
[8] = with 10^9 human RBC/ml, Table 2

Gentamicin
MIC [1]: >150 µM | MIC ([2]; isolate PA (mucoid)): 5.5 µM | MIC ([2]; isolate PA (non-mucoid)): 8.3 µM | MIC ([3]; isolate KP 2146 (NDM-1)): >150 µM | MIC ([3]; isolate KP (6)): >150 µM | MIC ([3]; isolate KP (46)): 1.6 µM | MIC ([3]; isolate KP (398)): 1.9 µM | MIC ([3]; isolate KP (CRE)): 5.2 µM | MIC [3, 6]: 1.9 µM | MIC ([3]; isolate KP (ST258C3)): >150 µM | MIC ([3]; isolate KP (ST258I2)): 8.3 µM | MIC ([3]; isolate KP (ST396)): 2 µM | MIC ([3]; isolate KP (St258 C2)): >150 µM | MIC [4]: >150 µM

CC(C)C[C@@H](NC(=O)[C@@H](CCC(N)=O)NC(=O)[C@@H](CCCNC(=N)N)NC(=O)[C@@H](CCCNC(=N)N)NC(=O)[C@@H](C)NC(=O)[C@@H](Cc1c[nH]c2ccccc12)NC(=O)[C@@H](CCCNC(=N)N)NC(=O)[C@H](N)CCCNC(=N)N)C(=O)N[C@H](C)C(=O)N[C@H](Cc1ccccc1)C(=O)N[C@H](C)C(=O)N[C@H](Cc1ccccc1)C(=O)N[C@H](CCCNC(=N)N)C(=O)N[C@H](CCCNC(=N)N)C(N)=O [D-CONGA-Q7, rrwarrqlafafrr (All D)] (H-[dR][dR][dW][dA][dR][dR][dQ][dL][dA][dF][dA][dF][dR][dR]-NH2)
Hemolysis at 100 μM (human RBCs): 0.07 | MIC in Broth Dilution, E. coli, RBC − (E. coli; absence of RBC, Table 3): 1 µM (≈ 1.89 µg/mL) | MIC, E. coli, No RBC (E. coli; no RBC, Table 2): 1 µM (≈ 1.89 µg/mL) | MIC in Broth Dilution, E. coli, RBC + (E. coli; [7]): 1.7 µM | MIC, E. coli, 10^9 cells/ml RBC (E. coli; [8]): 1.7 μM | MIC in Broth Dilution, S. Aureus, RBC − (S. aureus; absence of RBC, Table 3): 4.2 µM (≈ 7.93 µg/mL) | MIC, S. aureus, No RBC (S. aureus; no RBC, Table 2): 4.2 µM (≈ 7.93 µg/mL) | MIC in Broth Dilution, S. Aureus, RBC + (S. aureus; [7]): 3.6 µM | MIC, S. aureus, 10^9 cells/ml RBC (S. aureus; [8]): 3.6 μM | MIC, K. pneumoniae, 10^9 cells/ml RBC (K. pneumoniae): 1.5 μM | MIC ([3]; clinical isolates): 1.8 µM (≈ 3.4 µg/mL) | EC50 against WI-38 cells relative to that of D-CONGA [5]: four times higher | Toxicity against WI-38 cells (in words) [5]: lower cytotoxicity | EC50 ([5]; 50% cytotoxicity by SYTOX Green, Table 2, read-out: EC50, μM (WI-38 Cells)): 418 µM

CC1(C)S[C@@H]2[C@H](NC(=O)[C@H](N)c3ccccc3)C(=O)N2[C@H]1C(=O)O [AMP, Ampicillin]
MIC [1]: >150 µM | MIC ([2]; isolate PA (mucoid)): >150 µM | MIC ([2]; isolate PA (non-mucoid)): >150 µM | MIC [4]: >150 µM

CC(C)(O/N=C(\C(=O)N[C@@H]1C(=O)N2C(C(=O)[O-])=C(C[n+]3ccccc3)CS[C@H]12)c1csc(N)n1)C(=O)O [CAZ, Ceftazidime]
MIC [1]: >150 µM | MIC ([2]; isolate PA (mucoid)): 115.9 µM (≈ 63.3 µg/mL) | MIC ([2]; isolate PA (non-mucoid)): >150 µM | MIC ([3]; isolate KP 2146 (NDM-1)): >150 µM | MIC ([3]; isolate KP (6)): >150 µM | MIC ([3]; isolate KP (46)): >150 µM | MIC ([3]; isolate KP (398)): 132.7 µM (≈ 72.5 µg/mL) | MIC ([3]; isolate KP (CRE)): >150 µM | MIC [3, 6]: >150 µM | MIC ([3]; isolate KP (ST258C3)): >150 µM | MIC ([3]; isolate KP (ST258I2)): >150 µM | MIC ([3]; isolate KP (ST396)): >150 µM | MIC ([3]; isolate KP (St258 C2)): >150 µM | MIC [4]: >150 µM

C[C@@H](O)[C@H]1C(=O)N2C(C(=O)O)=C(S[C@@H]3CN[C@H](C(=O)N(C)C)C3)[C@H](C)[C@H]12 [MEM, Meropenem]
MIC [1]: >150 µM | MIC ([2]; isolate PA (mucoid)): 13.3 µM (≈ 5.1 µg/mL) | MIC ([2]; isolate PA (non-mucoid)): 4 µM (≈ 1.53 µg/mL) | MIC ([3]; isolate KP 2146 (NDM-1)): >150 µM | MIC ([3]; isolate KP (6)): 0.2 µM (≈ 0.0767 µg/mL) | MIC ([3]; isolate KP (46)): 0.4 µM (≈ 0.153 µg/mL) | MIC ([3]; isolate KP (398)): 0.2 µM (≈ 0.0767 µg/mL) | MIC ([3]; isolate KP (CRE)): 108.3 µM (≈ 41.5 µg/mL) | MIC [3, 6]: 0.2 µM (≈ 0.0767 µg/mL) | MIC ([3]; isolate KP (ST258C3)): >150 µM | MIC ([3]; isolate KP (ST258I2)): >150 µM | MIC ([3]; isolate KP (ST396)): 0.3 µM (≈ 0.115 µg/mL) | MIC ([3]; isolate KP (St258 C2)): >150 µM | MIC [4]: >150 µM

CO/N=C(\C(=O)N[C@@H]1C(=O)N2C(C(=O)O)=C(CSc3nc(=O)c(O)nn3C)CS[C@H]12)c1csc(N)n1 [CRO, Ceftriaxone]
MIC [1]: >150 µM | MIC ([2]; isolate PA (mucoid)): 137.2 µM (≈ 76.1 µg/mL) | MIC ([2]; isolate PA (non-mucoid)): 88.45 µM (≈ 49.1 µg/mL) | MIC ([3]; isolate KP 2146 (NDM-1)): >150 µM | MIC ([3]; isolate KP (6)): >150 µM | MIC ([3]; isolate KP (46)): 1.9 µM (≈ 1.05 µg/mL) | MIC ([3]; isolate KP (398)): 0.2 µM (≈ 0.111 µg/mL) | MIC ([3]; isolate KP (CRE)): 45 µM (≈ 25 µg/mL) | MIC [3, 6]: 0.3 µM (≈ 0.166 µg/mL) | MIC ([3]; isolate KP (ST258C3)): >150 µM | MIC ([3]; isolate KP (ST258I2)): >150 µM | MIC ([3]; isolate KP (ST396)): 1.9 µM (≈ 1.05 µg/mL) | MIC ([3]; isolate KP (St258 C2)): >150 µM | MIC [4]: >150 µM
